In brackets after ≈: the same amount, converted by molar mass.
Assays:
[1] = system: Escherichia coli; test: Antibacterial activity against Escherichia coli ATCC 25922 assessed as inhibition of bacterial growth; type: functional
[2] = system: Staphylococcus aureus; test: Antibacterial activity against Staphylococcus aureus ATCC 29213 assessed as inhibition of bacterial growth; type: functional
[3] = molecular target: DNA gyrase (Staphylococcus aureus, UniProt P0A0K8+P20831); test: Inhibition of Staphylococcus aureus DNA gyrase; type: protein-complex assay
Chain of DNA gyrase (P0A0K8 whole entry): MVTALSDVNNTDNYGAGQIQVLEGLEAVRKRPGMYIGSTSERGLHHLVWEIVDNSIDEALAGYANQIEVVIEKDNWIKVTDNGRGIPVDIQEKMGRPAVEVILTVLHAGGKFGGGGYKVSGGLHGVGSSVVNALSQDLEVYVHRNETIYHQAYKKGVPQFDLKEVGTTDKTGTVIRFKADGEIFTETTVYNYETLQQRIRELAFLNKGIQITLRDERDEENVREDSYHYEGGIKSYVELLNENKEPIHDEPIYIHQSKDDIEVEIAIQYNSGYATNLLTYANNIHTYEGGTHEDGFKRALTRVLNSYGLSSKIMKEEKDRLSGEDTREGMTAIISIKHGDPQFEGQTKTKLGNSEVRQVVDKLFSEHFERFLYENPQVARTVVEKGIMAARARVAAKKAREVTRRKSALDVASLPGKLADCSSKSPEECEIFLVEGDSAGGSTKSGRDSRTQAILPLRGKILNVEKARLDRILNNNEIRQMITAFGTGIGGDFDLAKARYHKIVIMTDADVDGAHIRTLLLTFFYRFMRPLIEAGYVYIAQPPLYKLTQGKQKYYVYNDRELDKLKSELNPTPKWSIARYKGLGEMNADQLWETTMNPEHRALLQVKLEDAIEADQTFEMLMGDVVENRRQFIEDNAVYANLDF
Chain of DNA gyrase (P20831 whole entry): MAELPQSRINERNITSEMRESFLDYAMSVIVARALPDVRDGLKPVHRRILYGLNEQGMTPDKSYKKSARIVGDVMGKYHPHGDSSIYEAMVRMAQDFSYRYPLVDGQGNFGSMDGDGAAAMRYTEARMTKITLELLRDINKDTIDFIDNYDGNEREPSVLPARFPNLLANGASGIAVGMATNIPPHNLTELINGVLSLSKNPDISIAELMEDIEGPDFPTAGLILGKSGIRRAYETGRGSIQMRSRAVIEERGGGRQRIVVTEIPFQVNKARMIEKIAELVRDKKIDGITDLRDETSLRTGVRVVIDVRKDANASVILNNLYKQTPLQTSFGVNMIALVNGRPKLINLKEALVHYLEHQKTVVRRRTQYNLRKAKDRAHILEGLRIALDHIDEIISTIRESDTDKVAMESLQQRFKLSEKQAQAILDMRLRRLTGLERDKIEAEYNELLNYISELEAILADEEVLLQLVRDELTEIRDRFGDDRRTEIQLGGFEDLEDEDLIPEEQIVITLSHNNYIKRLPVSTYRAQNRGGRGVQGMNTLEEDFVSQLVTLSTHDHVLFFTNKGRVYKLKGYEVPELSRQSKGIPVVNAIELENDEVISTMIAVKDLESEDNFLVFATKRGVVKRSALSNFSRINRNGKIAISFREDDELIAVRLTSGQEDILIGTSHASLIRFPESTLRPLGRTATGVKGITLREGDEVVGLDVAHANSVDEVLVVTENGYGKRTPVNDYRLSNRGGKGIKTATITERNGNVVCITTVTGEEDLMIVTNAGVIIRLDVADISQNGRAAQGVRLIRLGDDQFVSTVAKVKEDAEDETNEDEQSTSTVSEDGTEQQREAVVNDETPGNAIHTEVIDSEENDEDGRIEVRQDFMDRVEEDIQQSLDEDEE

[4] = molecular target: Cytochrome P450 2C19 (Homo sapiens, UniProt P33261); test: Inhibition of CYP2C19 (unknown origin) at 10 uM; type: ADME
Chain of Cytochrome P450 2C19 (P33261 whole entry): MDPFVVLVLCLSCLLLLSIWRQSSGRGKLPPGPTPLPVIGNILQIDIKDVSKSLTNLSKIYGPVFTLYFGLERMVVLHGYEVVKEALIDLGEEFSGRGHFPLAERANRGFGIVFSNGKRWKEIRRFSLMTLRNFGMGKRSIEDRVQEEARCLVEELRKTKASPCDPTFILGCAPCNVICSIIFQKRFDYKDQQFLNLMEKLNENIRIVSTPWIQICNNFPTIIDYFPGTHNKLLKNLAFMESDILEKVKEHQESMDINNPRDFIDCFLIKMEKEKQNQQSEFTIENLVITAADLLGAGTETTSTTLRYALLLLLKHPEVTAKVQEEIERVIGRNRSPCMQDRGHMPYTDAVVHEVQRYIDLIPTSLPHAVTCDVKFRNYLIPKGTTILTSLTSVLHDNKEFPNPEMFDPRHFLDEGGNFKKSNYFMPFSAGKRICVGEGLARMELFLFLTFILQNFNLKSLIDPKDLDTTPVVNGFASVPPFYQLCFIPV

[5] = molecular target: T1, Cytochrome P450 2C8 (Homo sapiens, UniProt P10632); test: Inhibition of CYP2C8 (unknown origin) at 10 uM; type: ADME
T1 sequence (P10632 whole entry): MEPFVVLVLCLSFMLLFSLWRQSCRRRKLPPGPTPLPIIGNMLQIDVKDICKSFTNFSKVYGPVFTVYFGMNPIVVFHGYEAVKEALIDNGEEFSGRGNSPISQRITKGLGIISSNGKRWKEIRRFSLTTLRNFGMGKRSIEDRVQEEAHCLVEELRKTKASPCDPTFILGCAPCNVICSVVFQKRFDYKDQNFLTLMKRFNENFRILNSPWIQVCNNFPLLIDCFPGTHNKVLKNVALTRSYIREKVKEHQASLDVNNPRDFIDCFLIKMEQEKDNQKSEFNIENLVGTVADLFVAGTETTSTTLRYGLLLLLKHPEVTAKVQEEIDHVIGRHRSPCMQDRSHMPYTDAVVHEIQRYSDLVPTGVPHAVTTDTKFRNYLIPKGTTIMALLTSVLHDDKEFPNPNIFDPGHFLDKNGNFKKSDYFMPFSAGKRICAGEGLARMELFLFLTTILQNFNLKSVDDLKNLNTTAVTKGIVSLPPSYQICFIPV

[6] = molecular target: Cytochrome P450 2D6 (Homo sapiens, UniProt P10635); test: Inhibition of CYP2D6 (unknown origin) at 10 uM; type: ADME
Chain of Cytochrome P450 2D6 (P10635 whole entry): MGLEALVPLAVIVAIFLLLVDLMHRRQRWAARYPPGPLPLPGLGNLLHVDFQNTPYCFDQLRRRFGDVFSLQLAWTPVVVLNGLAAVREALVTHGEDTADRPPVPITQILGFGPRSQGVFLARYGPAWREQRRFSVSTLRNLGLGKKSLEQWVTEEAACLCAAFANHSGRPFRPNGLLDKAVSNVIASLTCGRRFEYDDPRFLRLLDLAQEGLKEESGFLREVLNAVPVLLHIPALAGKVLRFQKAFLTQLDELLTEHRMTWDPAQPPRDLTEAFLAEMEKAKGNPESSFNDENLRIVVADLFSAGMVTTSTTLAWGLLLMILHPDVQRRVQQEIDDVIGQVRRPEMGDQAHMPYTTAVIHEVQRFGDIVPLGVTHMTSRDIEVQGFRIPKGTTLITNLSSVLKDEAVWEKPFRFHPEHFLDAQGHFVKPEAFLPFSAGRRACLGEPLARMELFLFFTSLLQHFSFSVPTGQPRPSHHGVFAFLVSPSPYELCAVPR

[7] = molecular target: Cytochrome P450 3A4 (Homo sapiens, UniProt P08684); test: Inhibition of CYP3A4 (unknown origin) at 10 uM; type: ADME
Chain of Cytochrome P450 3A4 (P08684 whole entry): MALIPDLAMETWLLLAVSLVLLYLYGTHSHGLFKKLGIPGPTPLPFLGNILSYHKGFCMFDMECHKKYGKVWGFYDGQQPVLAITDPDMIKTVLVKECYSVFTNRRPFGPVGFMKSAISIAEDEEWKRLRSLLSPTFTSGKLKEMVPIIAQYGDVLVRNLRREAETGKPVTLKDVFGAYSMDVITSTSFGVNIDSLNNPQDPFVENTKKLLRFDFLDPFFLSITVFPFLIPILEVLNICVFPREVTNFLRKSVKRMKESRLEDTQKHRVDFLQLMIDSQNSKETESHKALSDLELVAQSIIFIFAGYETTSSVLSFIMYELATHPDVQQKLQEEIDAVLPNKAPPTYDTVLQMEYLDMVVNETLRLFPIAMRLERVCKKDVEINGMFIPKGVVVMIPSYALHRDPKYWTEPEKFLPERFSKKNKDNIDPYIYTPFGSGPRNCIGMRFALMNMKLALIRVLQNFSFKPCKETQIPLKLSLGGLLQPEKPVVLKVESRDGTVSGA

[8] = molecular target: Topoisomerase IV (Staphylococcus aureus, UniProt P0C1S7+P0C1U9); test: Inhibition of Staphylococcus aureus DNA topoisomerase 4; type: protein-complex assay
Chain of Topoisomerase IV (P0C1U9 whole entry): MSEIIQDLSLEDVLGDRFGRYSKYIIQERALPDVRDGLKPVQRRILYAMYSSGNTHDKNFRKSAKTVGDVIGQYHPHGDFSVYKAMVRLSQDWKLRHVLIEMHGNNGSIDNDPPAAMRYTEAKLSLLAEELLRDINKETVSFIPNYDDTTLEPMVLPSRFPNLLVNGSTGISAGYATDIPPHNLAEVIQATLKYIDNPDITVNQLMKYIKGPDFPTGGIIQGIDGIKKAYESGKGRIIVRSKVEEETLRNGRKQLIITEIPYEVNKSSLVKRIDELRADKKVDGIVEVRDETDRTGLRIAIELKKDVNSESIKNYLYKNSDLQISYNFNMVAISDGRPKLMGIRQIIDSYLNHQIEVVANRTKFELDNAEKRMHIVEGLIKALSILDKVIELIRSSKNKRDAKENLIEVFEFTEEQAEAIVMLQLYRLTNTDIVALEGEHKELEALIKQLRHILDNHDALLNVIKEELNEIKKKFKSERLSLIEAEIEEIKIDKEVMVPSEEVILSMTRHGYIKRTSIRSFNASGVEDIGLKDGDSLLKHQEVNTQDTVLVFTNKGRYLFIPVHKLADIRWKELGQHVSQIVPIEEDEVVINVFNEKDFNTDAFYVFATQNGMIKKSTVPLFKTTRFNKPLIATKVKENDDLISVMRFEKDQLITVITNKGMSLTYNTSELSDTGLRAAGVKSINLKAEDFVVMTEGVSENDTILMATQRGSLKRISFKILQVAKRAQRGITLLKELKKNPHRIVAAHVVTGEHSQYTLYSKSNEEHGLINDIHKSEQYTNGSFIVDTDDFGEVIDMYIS
Chain of Topoisomerase IV (P0C1S7 whole entry): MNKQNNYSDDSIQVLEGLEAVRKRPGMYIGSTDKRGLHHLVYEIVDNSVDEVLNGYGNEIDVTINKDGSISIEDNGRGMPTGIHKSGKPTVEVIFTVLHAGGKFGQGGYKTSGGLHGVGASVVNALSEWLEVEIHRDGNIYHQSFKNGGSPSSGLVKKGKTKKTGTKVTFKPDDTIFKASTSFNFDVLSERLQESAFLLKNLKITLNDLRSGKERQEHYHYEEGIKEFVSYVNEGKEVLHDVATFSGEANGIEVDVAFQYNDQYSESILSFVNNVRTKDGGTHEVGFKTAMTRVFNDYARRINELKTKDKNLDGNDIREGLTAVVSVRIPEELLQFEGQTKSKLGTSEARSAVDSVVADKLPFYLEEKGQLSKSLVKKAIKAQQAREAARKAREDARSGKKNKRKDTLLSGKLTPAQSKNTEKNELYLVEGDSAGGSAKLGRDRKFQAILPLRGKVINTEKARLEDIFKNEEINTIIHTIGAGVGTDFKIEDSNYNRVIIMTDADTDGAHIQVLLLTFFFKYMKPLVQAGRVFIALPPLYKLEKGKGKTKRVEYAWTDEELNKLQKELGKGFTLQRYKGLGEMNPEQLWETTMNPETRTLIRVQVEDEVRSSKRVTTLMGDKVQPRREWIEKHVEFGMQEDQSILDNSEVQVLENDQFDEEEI

[9] = molecular target: T2, Cytochrome P450 1A2 (Homo sapiens, UniProt P05177); test: Inhibition of CYP1A2 (unknown origin) at 10 uM; type: ADME
T2 sequence (P05177 whole entry): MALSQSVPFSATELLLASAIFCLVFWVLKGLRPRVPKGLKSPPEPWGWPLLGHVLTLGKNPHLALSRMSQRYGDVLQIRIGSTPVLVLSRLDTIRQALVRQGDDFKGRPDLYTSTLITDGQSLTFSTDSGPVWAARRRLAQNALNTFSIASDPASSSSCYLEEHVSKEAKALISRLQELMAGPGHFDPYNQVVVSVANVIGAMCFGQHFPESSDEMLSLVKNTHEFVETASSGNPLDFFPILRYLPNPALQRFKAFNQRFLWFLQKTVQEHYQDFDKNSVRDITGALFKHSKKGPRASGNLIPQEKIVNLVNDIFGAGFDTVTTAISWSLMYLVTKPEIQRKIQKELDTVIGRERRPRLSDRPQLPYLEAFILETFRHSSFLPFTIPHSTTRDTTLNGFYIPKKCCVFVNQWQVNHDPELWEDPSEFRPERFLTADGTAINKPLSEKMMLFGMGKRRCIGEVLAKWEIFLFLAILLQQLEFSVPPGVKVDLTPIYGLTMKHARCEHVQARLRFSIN

SMILES	MIC [1] [µg/mL]	MIC [2] [µg/mL]	further results
O=S1(=O)c2ccccc2N(CCN2CCC(NCc3cc4c(cn3)OCCC4)CC2)c2ccccc21	> 16	> 16	
O=c1ccn2nccc2n1CCN1CCC(NCc2cc3c(cn2)OCCC3)CC1	8 (≈ 19.6 µM)	2 (≈ 4.9 µM)	
CCOC(=O)C1COc2cc(CNC3CCN(CCn4c(=O)ccc5ccc(C#N)cc54)CC3)ccc2O1 (centres undefined)	> 16	> 16	
O=c1ccc2ccc(C(F)(F)F)cc2n1CCN1CCC(NCc2cc3c(cn2)OCCC3)CC1	2 (≈ 4.11 µM)	0.125 (≈ 0.257 µM)	
c1ccc2c(c1)c1ccccc1n2CCN1CCC(NCc2cc3c(cn2)OCCC3)CC1	> 16	> 16	
N#Cc1ccc2ccc(=O)n(CCN3CCC(NCc4ccc5c(c4)CCCO5)CC3)c2c1	0.25 (≈ 0.565 µM)	< 0.125	
N#Cc1cnn2ccc(=O)n(CCN3CCC(NCc4cc5c(cn4)OCCC5)CC3)c12	2 (≈ 4.61 µM)	2 (≈ 4.61 µM)	
CN1C(=O)COc2ccc(CNC3CCN(CCn4c(=O)ccc5ccc(C#N)cc54)CC3)cc21	16 (≈ 33.9 µM)	8 (≈ 17 µM)	
N#Cc1ccc2ccc(=O)n(CCN3CCC(NCc4ccc5c(c4)OCCO5)CC3)c2c1		< 0.125	IC50 [3]: 44 nM; inhibition (INH) [4]: Not Active; inhibition (INH) [5]: Not Active; inhibition (INH) [6]: Not Active; inhibition (INH) [7]: Not Active; IC50 [8]: 900 nM; inhibition (INH) [9]: Not Active
N#Cc1ccc2ccc(=O)n(CCN3CCC(NCc4ccc5c(c4)OCC(C(=O)O)O5)CC3)c2c1 (centres undefined)	> 16	> 16	
O=S1(=O)c2ccccc2-c2ccccc2N1CCN1CCC(NCc2cc3c(cn2)OCCC3)CC1	> 16	> 16	
c1ccc2c(c1)Sc1ccccc1N2CCN1CCC(NCc2cc3c(cn2)OCCC3)CC1	> 16	16 (≈ 33.9 µM)	
O=S1(=O)C=Cc2ccccc2N1CCN1CCC(NCc2cc3c(cn2)OCCC3)CC1	> 16	> 16	
N#Cc1ccc2ccc(=O)n(CCN3CCC(NCc4ccc5c(c4)OC(C(=O)O)CO5)CC3)c2c1 (centres undefined)	> 16	> 16	

Source: ChEMBL document CHEMBL6127020, “Discovery of aminopiperidine based potent & novel topoisomerase inhibitor with broad spectrum anti-bacterial activity” (Bioorg Med Chem Lett, 2024)
